According to patent US9586986B2, “Substituted 7-deazapurine ribonucleosides for therapeutic uses” (Institute of Organic Chemistry and Biochemistry ASCR, v.v.i., priority 2014, dated 2017):
pEC50, pIC50: −log10 of the molar value. Like-named read-outs stand apart in the source and are kept apart here.

Key:
Assay type in all cases: cell-based
MRC-5 = assay: Cytostatic/cytotoxic MTT assay, MRC-5 fibroblasts; settings: Homo sapiens, read-out: MTT, IC50 MRC-5
Summary of the method: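 72 h exposure, duplicate four-fold dilutions; MTT 1-4 h, SDS solubilisation, A540. IC50 = 50% growth inhibition from dose-response fit. MRC-5 and BJ are non-malignant human fibroblasts.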

HL60 = assay: XTT cytotoxicity assay, HL-60; settings: Homo sapiens, read-out: XTT, IC50 HL60
Summary of the method: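 Cells seeded at 10,000 per well, compounds added after 24 h and incubated 72 h, then XTT (with N-methyl dibenzopyrazine methyl sulfate) for 2 h; absorbance at 495 nm. IC50 by non-linear regression.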

[1] = system: Huh-7 cells harboring replicon 2A; assay: Cytotoxicity in replicon 2A cells; settings: HCV subtype 2A replicon
Protocol: (§1) Compounds were also tested in Huh-7 cells harboring sub-genomic reporter replicons derived from HCV subtypes 1B and 2A (ref.: Stuyver, L. J.; Whitaker, T.; McBrayer, T. R.; Hernandez-Santiago, B. I.; Lostia, S.; Tharnish, P. M.; Ramesh, M.; Chu, C. K.; Jordan, R.; Shi, J. X.; Rachakonda, S.; Watanabe, K. A.; Otto, M. J.; Schinazi, R. F. Antimicrob. Agents Chemother. 2003, 47, 244-254).

[2] = system: HCV subtype 2A replicon in Huh-7 cells; assay: HCV sub-genomic reporter replicon assay, subtype 2A; settings: Hepatitis C virus
Protocol: as §1

K562 = assay: Cytostatic/cytotoxic MTT assay, K562; settings: Homo sapiens, read-out: MTT, IC50 K562
Summary of the method: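 Growth inhibition is measured by MTT metabolic staining after a 3-day compound treatment at 37 °C, 5% CO2. Formazan is dissolved overnight in 10% aqueous SDS, pH 5.5, and read at 540 nm.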

HCT116p53-/- = assay: Cytostatic/cytotoxic MTT assay, HCT116p53-/-; settings: Homo sapiens, read-out: MTT, IC50 HCT116 p53-/-
Summary of the method: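 Human cancer lines, including daunorubicin-resistant CEM-DNR (mrp-1/mdr-1 overexpressing) and paclitaxel-resistant K562-TAX (mdr-1), seeded 25,000-30,000 cells/well, pre-incubated 24 h, then treated in duplicate with four-fold dilutions for 72 h at 37° C, 5% CO2. MTT read-out at 540 nm; IC50 from dose-response curves.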

[3] = MRC5, non-malignant fibroblasts, 72 h
[4] = Huh-7 cells, HCV subtype 2A replicon, read-out: Replicon 2A EC50
[5] = Huh-7, read-out: Replicon 2A EC50

SMILES	pIC50 (MRC-5; [3])	pIC50 (HL60; HL-60, 72 h incubation)	CC50 [1]	pEC50 [2, 4]	pIC50 (K562; K562, 72 h incubation)	pIC50 (HCT116p53-/-; HCT-116, 72 h incubation)	pIC50 (MRC-5; MRC5, 72 h)	pIC50 (HL60; HL-60, 72 h)	pEC50 [2, 5]	pIC50 (K562; K562, 72 h)	pIC50 (HCT116p53-/-; HCT-116, 72 h)
CN(C)c1ncnc2c1c(-c1ccoc1)cn2[C@@H]1O[C@H](CO)[C@@H](O)[C@H]1O [Compound 4b, 4-Dimethylamino-5-(furan-3-yl)-7-(β-D-ribofuranosyl)-7H-pyrrolo[2,3-d]pyrimidine]	< 4.00	5.94	> 44 µM	< 4.36	5.81	< 4.70	–	–	–	–	–
CN(C)c1ncnc2c1c(-c1cccs1)cn2[C@@H]1O[C@H](CO)[C@@H](O)[C@H]1O [Compound 4c, 4-Dimethylamino-7-(β-D-ribofuranosyl)-5-(thiophen-2-yl)-7H-pyrrolo[2,3-d]pyrimidine]	< 4.00	4.93	> 44 µM	< 4.36	< 4.70	< 4.70	–	–	–	–	–
CN(C)c1ncnc2c1c(-c1ccsc1)cn2[C@@H]1O[C@H](CO)[C@@H](O)[C@H]1O [Compound 4d, 4-Dimethylamino-7-(β-D-ribofuranosyl)-5-(thiophen-3-yl)-7H-pyrrolo[2,3-d]pyrimidine]	< 4.00	5.72	> 44 µM	< 4.36	6.28	< 4.70	–	–	–	–	–
CN(C)c1ncnc2c1c(-c1ccccc1)cn2[C@@H]1O[C@H](CO)[C@@H](O)[C@H]1O [Compound 4e, 4-Dimethylamino-5-phenyl-7-(β-D-ribofuranosyl)-7H-pyrrolo[2,3-d]pyrimidine]	< 4.00	< 4.70	> 44 µM	< 4.36	< 4.70	< 4.70	–	–	–	–	–
CN(C)c1ncnc2c1c(-c1cc3ccccc3o1)cn2[C@@H]1O[C@H](CO)[C@@H](O)[C@H]1O [Compound 4f, 5-(Benzofuran-2-yl)-4-dimethylamino-7-(β-D-ribofuranosyl)-7H-pyrrolo[2,3-d]pyrimidine]	< 4.00	< 4.70	> 44 µM	< 4.36	< 4.70	< 4.70	–	–	–	–	–
C#Cc1cn([C@@H]2O[C@H](CO)[C@@H](O)[C@H]2O)c2ncnc(N(C)C)c12 [Compound 4g, 4-Dimethylamino-5-ethynyl-7-(β-D-ribofuranosyl)-7H-pyrrolo[2,3-d]pyrimidine]	4.44	6.54	> 44 µM	7.00	6.96	6.54	–	–	–	–	–
CN(C)c1ncnc2c1c(I)cn2[C@@H]1O[C@H](CO)[C@@H](O)[C@H]1O [Compound 4h, 4-Dimethylamino-5-iodo-7-(β-D-ribofuranosyl)-7H-pyrrolo[2,3-d]pyrimidine]	4.04	7.30	> 44 µM	< 4.36	7.15	6.92	–	–	–	–	–
Cc1ncnc2c1c(-c1ccco1)cn2[C@@H]1O[C@H](CO)[C@@H](O)[C@H]1O [Compound 5a, 5-(Furan-2-yl)-4-methyl-7-(β-D-ribofuranosyl)-7H-pyrrolo[2,3-d]pyrimidine]	6.21	6.68	43.6 µM	6.82	7.40	7.40	–	–	–	–	–
Cc1ncnc2c1c(-c1ccoc1)cn2[C@@H]1O[C@H](CO)[C@@H](O)[C@H]1O [Compound 5b, 5-(Furan-3-yl)-4-methyl-7-(β-D-ribofuranosyl)-7H-pyrrolo[2,3-d]pyrimidine]	4.01	< 4.82	> 44 µM	< 4.36	< 4.70	< 4.70	–	–	–	–	–
Cc1ncnc2c1c(-c1cccs1)cn2[C@@H]1O[C@H](CO)[C@@H](O)[C@H]1O [Compound 5c, 4-Methyl-7-(β-D-ribofuranosyl)-5-(thiophen-2-yl)-7H-pyrrolo[2,3-d]pyrimidine]	< 4.00	5.24	> 44 µM	< 4.36	< 4.70	< 4.70	–	–	–	–	–
Cc1ncnc2c1c(-c1ccsc1)cn2[C@@H]1O[C@H](CO)[C@@H](O)[C@H]1O [Compound 5d, 4-Methyl-7-(β-D-ribofuranosyl)-5-(thiophen-3-yl)-7H-pyrrolo[2,3-d]pyrimidine]	< 4.00	6.46	> 44 µM	< 4.36	6.49	5.84	–	–	–	–	–
Cc1ncnc2c1c(-c1ccccc1)cn2[C@@H]1O[C@H](CO)[C@@H](O)[C@H]1O [Compound 5e, 4-Methyl-5-phenyl-7-(β-D-ribofuranosyl)-7H-pyrrolo[2,3-d]pyrimidine]	< 4.00	< 4.70	> 44 µM	< 4.36	< 4.70	4.02	–	–	–	–	–
Cc1ncnc2c1c(-c1cc3ccccc3o1)cn2[C@@H]1O[C@H](CO)[C@@H](O)[C@H]1O [Compound 5f, 5-(Benzofuran-2-yl)-4-methyl-7-(β-D-ribofuranosyl)-7H-pyrrolo[2,3-d]pyrimidine]	4.07	< 4.70	> 44 µM	4.40	4.71	< 4.70	–	–	–	–	–
C#Cc1cn([C@@H]2O[C@H](CO)[C@@H](O)[C@H]2O)c2ncnc(C)c12 [Compound 5g, 5-Ethynyl-4-methyl-7-(β-D-ribofuranosyl)-7H-pyrrolo[2,3-d]pyrimidine]	5.84	5.95	> 44 µM	4.67	5.16	< 4.70	–	–	–	–	–
COc1ncnc2c1ccn2[C@@H]1O[C@H](CO)[C@@H](O)[C@H]1O [RC1, reference compound]	< 4.00	< 4.70	> 44 µM	< 4.36	< 4.70	< 4.70	–	–	–	–	–
CSc1ncnc2c1ccn2[C@@H]1O[C@H](CO)[C@@H](O)[C@H]1O [RC2, reference compound]	–	–	> 44 µM	–	–	–	< 4.00	5.14	< 4.36	< 4.70	< 4.70
CNc1ncnc2c1ccn2[C@@H]1O[C@H](CO)[C@@H](O)[C@H]1O [RC3, reference compound]	4.01	4.89	> 44 µM	< 4.36	< 4.70	< 4.70	–	–	–	–	–
CN(C)c1ncnc2c1ccn2[C@@H]1O[C@H](CO)[C@@H](O)[C@H]1O [RC4, reference compound]	4.24	6.06	> 44 µM	6.01	5.28	5.29	–	–	–	–	–
Cc1ncnc2c1ccn2[C@@H]1O[C@H](CO)[C@@H](O)[C@H]1O [RC5, 4-Methyl-7-(β-D-ribofuranosyl)-7H-pyrrolo[2,3-d]pyrimidine, reference compound]	–	–	0.12 µM	–	–	–	7.05	7.70	7.70	8.00	7.22
